From patent US20100022531A1, “NOVEL COMPOUNDS AS P2X7 MODULATORS AND USES THEREOF” (RENOVIS, INC., priority 2005, published 2010)

The molecules below were run against T1, P2X7 receptor (Homo sapiens, UniProt Q99572) (assay: Alternate method for IL-1β release assay (differentiated THP-1 cells, BzATP-stimulated, ELISA)). Details: P2X7, read-out: IL-1β % inhib @ 0.3 μM.
T1 construct: host or cells: THP-1 cells differentiated with LPS and IFN-γ
T1 sequence (Q99572 1-595): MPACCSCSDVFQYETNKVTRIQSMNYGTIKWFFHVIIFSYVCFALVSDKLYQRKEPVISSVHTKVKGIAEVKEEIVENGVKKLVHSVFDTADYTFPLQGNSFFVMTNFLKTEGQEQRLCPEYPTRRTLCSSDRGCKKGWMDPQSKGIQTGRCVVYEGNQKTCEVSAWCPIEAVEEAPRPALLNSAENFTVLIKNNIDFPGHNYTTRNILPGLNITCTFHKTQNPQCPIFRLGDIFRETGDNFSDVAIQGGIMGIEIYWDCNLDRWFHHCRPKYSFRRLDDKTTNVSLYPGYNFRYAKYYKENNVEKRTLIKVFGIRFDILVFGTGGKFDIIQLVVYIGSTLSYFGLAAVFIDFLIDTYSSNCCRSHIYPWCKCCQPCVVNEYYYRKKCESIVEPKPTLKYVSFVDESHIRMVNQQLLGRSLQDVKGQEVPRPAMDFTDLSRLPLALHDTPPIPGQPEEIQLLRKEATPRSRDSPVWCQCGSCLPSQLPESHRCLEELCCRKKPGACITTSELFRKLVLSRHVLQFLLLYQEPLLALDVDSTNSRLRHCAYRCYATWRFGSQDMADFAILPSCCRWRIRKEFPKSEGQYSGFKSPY
Assay type: cell-based
Experimental: Alternate Method for IL-1β Release Assay
THP-1 cells (ATCC Cat #285-IF-100) are plated in 96 well plates at a concentration of 200,000 cells per well and allowed to differentiate in RPMI-1640 media (ATCC Cat #30-2001) containing 10% FBS, 100 IU/mL penicillin, 100 ug/mL streptomycin, 100 ng/mL LPS and 100 ng/mL IFN-γ for 16 hours. Following differentiation, the cells are treated for an additional 2 hours in RPMI-1640 media containing 100 IU/mL penicillin, 100 ug/mL streptomycin and fresh LPS at 100 ng/mL. The cells are then pretreated for 30 minutes with the compound of interest at the appropriate concentration in RPMI media containing 100 IU/mL penicillin, 100 ug/mL streptomycin. Following the pretreatment 2′,3′-O-(4-benzoylbenzoyl)-adenosine 5′-triphosphate (Sigma Aldrich Cat# B6396) is added to a final concentration of 250 uM and the cells incubated for an additional 45 minutes. 30 uL of cell supernatant is then collected and IL-1β levels determined via ELISA (R&D systems Cat. # HSLB50) according to manufacturers recommendations using the Tecan Safire plate reader. Background adjusted IL-1β levels of drug treated and non-treated cells are used to calculate the percent inhibition.
In the case of `O=S(=O)(c1ccccc1)N1CCc2c(ncnc2NCC23CC4CC(CC(C4)C2)C3)C1` [Compound 4, Adamantan-1-ylmethyl-(7-benzenesulfonyl-5,6,7,8-tetrahydro-pyrido[3,4-d]pyrimidin-4-yl)-amine], the inhibition at 0.3 µM is reported as 50 to 75%.

Same assay, conditions: P2X7; 0.1 μM compound (plus symbols); read-out: IL-1β % inhib @ 0.1 μM
Work on `c1ccc(CN2CCc3c(ncnc3NCC34CC5CC(CC(C5)C3)C4)C2)cc1` [Compound 1, Adamantan-1-ylmethyl-(7-benzyl-5,6,7,8-tetrahydro-pyrido[3,4-d]pyrimidin-4-yl)-amine] yielded an inhibition at 0.1 µM of over 75%.
With `CCS(=O)(=O)N1CCc2c(ncnc2NCC23CC4CC(CC(C4)C2)C3)C1` [Compound 9] the inhibition at 0.1 µM was over 75%.
Molecule `O=S(=O)(c1ccccc1F)N1CCc2c(ncnc2NCC23CC4CC(CC(C4)C2)C3)C1` [Compound 24] has an inhibition at 0.1 µM of over 75%.

Same assay, conditions: P2X7; 0.3 μM compound (asterisk symbols); read-out: IL-1β % inhib @ 0.3 μM
With `CC12CC3CC(C)(C1)CC(CNc1ncnc4c1CCN(Cc1ccccc1)C4)(C3)C2` [Compound 2] the inhibition at 0.3 µM was 0 to 25%.
For `CS(=O)(=O)N1CCc2c(ncnc2NCC23CC4CC(CC(C4)C2)C3)C1` [Compound 3], the inhibition at 0.3 µM was 25 to 50%.
`Cc1ccc(S(=O)(=O)N2CCc3c(ncnc3NCC34CC5CC(CC(C5)C3)C4)C2)cc1` [Compound 5] gave an inhibition at 0.3 µM of 50 to 75%.
`O=S(=O)(c1ccc2ccccc2c1)N1CCc2c(ncnc2NCC23CC4CC(CC(C4)C2)C3)C1` [Compound 6] gave an inhibition at 0.3 µM of 0 to 25%.
Molecule `O=S(=O)(c1cccc2cccnc12)N1CCc2c(ncnc2NCC23CC4CC(CC(C4)C2)C3)C1` [Compound 7] has an inhibition at 0.3 µM of over 75%.
Molecule `CCCS(=O)(=O)N1CCc2c(ncnc2NCC23CC4CC(CC(C4)C2)C3)C1` [Compound 8] has an inhibition at 0.3 µM of 50 to 75%.
`COc1ccc(S(=O)(=O)N2CCc3c(ncnc3NCC34CC5CC(CC(C5)C3)C4)C2)cc1` [Compound 10] showed an inhibition at 0.3 µM of 25 to 50%.
`O=S(=O)(c1ccc(Cl)cc1)N1CCc2c(ncnc2NCC23CC4CC(CC(C4)C2)C3)C1` [Compound 11] showed an inhibition at 0.3 µM of 0 to 25%.
`COc1ccc(S(=O)(=O)N2CCc3c(ncnc3NCC34CC5CC(CC(C5)C3)C4)C2)cc1OC` [Compound 12] gave an inhibition at 0.3 µM of 25 to 50%.
`O=S(=O)(c1ccc(F)cc1)N1CCc2c(ncnc2NCC23CC4CC(CC(C4)C2)C3)C1` [Compound 13] gave an inhibition at 0.3 µM of 25 to 50%.
`O=S(=O)(Cc1ccccc1)N1CCc2c(ncnc2NCC23CC4CC(CC(C4)C2)C3)C1` [Compound 14] showed an inhibition at 0.3 µM of over 75%.
`O=S(=O)(c1cccc(C(F)(F)F)c1)N1CCc2c(ncnc2NCC23CC4CC(CC(C4)C2)C3)C1` [Compound 15] was tested, and the inhibition at 0.3 µM was 0 to 25%.
Molecule `O=S(=O)(c1ccc(OC(F)(F)F)cc1)N1CCc2c(ncnc2NCC23CC4CC(CC(C4)C2)C3)C1` [Compound 16] has an inhibition at 0.3 µM of 0 to 25%.
In the case of `CN1CCOc2cc(S(=O)(=O)N3CCc4c(ncnc4NCC45CC6CC(CC(C6)C4)C5)C3)ccc21` [Compound 17], the inhibition at 0.3 µM is reported as 0 to 25%.
`Cc1nn(C)c(Cl)c1S(=O)(=O)N1CCc2c(ncnc2NCC23CC4CC(CC(C4)C2)C3)C1` [Compound 18] gave an inhibition at 0.3 µM of 0 to 25%.
`Cc1c(S(=O)(=O)N2CCc3c(ncnc3NCC34CC5CC(CC(C5)C3)C4)C2)cnn1-c1ccccc1` [Compound 19] showed an inhibition at 0.3 µM of 50 to 75%.
With `O=S(=O)(c1cccc(OC(F)(F)F)c1)N1CCc2c(ncnc2NCC23CC4CC(CC(C4)C2)C3)C1` [Compound 20] the inhibition at 0.3 µM was 25 to 50%.
Molecule `COc1cccc(S(=O)(=O)N2CCc3c(ncnc3NCC34CC5CC(CC(C5)C3)C4)C2)c1` [Compound 21] has an inhibition at 0.3 µM of 50 to 75%.
In the case of `Cc1nc(S(=O)(=O)N2CCc3c(ncnc3NCC34CC5CC(CC(C5)C3)C4)C2)cn1C` [Compound 22], the inhibition at 0.3 µM is reported as 0 to 25%.
With `N#Cc1ccc(S(=O)(=O)N2CCc3c(ncnc3NCC34CC5CC(CC(C5)C3)C4)C2)c(Cl)c1` [Compound 23] the inhibition at 0.3 µM was 0 to 25%.
Work on `N#Cc1ccc(S(=O)(=O)N2CCc3c(ncnc3NCC34CC5CC(CC(C5)C3)C4)C2)cc1` [Compound 25] yielded an inhibition at 0.3 µM of 25 to 50%.
Molecule `Cc1noc(C)c1S(=O)(=O)N1CCc2c(ncnc2NCC23CC4CC(CC(C4)C2)C3)C1` [Compound 26] has an inhibition at 0.3 µM of 50 to 75%.
`O=c1ccc2cc(S(=O)(=O)N3CCc4c(ncnc4NCC45CC6CC(CC(C6)C4)C5)C3)ccc2o1` [Compound 28] gave an inhibition at 0.3 µM of 25 to 50%.
